Structures can show the parent of a compound that is named as a salt.
Assays:
[1] = molecular target: T1, CHOK1 cells engineered to overexpress human CCR2 (Homo sapiens, UniProt P41597); assay: Antibody Dependent Cellular Cytotoxicity (ADCC) Reporter Assay; assay type: cell-based; conditions: with anti-cotinine antibody (human IgG1 Fc, S239D/I332E); Jurkat FcγRIIIa NFAT-luciferase reporter cells; average if several runs; read-out: ADCC Reporter Assay pEC50 (converted)
T1 construct: expressed in transfected cells; host or cells: CHOK1
Protocol: An antibody dependent cellular cytoxocity reporter assay was conducted using the following four assay components: (i) ARM compound of Formula (I) targeting CCR2 (concentrations ranging from 1 pM to 10 μM) (ii) anti-cotinine antibody having a heavy chain sequence of SEQ ID NO: 11 and a light chain sequence of SEQ ID NO: 12 (rabbit variable region with human IgG1 Fc domain containing a DE mutation (S239D/I332E)) (concentrations ranging from 0.01 μg/mL to 200 μg/mL); (iii) target cells: CHOK1 cells engineered to overexpress either human CCR2 (typically 1000-20,000 cells per well) and (iv) reporter cells: Jurkat cells engineered to express FcγRIIIa with the reporter gene luciferase under the control of the NFAT promoter (typically 3000-75,000 cells per well). Reagents were combined in a final volume of 20 μL in a 384-well tissue culture treated plate. All four assay components were incubated together for about 12-18 hours. Thereafter, BioGlo Detection reagent (Promega) was added to the wells to lyse the cells and provide a substrate for the luciferase reporter protein. Luminescence signal was measured on a microplate reader and signal:background was calculated by dividing the signal of a test well by the signal obtained when no heterobivalent compound of Formula (I) was added. EC50 calculations were done using Graphpad Prism Software, specifically a nonlinear regression curve fit (Y=Bottom+(Top−Bottom)/(1+10 ^((Log EC50−X)*HillSlope))).
ARMs compounds of Formula (I) of the invention were tested for ADCC activity in the above assay in or more experimental runs and the results are shown in Table 3 below. Potency of the compounds of Formula (I) of the invention is reported as a pEC50 value. The pEC50 value is the negative log of the EC50 value, wherein the EC50 value is the half maximal effective concentration measured in molar (M). For compounds tested in more than one experimental run, the pEC50 value is reported as an average.

[2] = molecular target: human alpha1 nicotinic acetylcholine (nACh) receptor (Homo sapiens, UniProt P02708+Q07001); assay: Nicotinic Acetylcholine Receptor Antagonism Assay (IONFlux automated patch clamp); assay type: cell-based; conditions: for IC50: antagonism of nAChR stimulated with acetylcholine, average if several runs; for Emax at 100 µM: maximum percentage antagonism at Maximum Concentration of Compound Tested 100 μM, read-out: Maximum Response (%)
Protocol: Cells expressing human alpha1 nicotinic acetylcholine (nACh) receptor (nAChR) were washed and dissociated using Trypsin containing buffer. Cells were then washed and seeded at a density of 3-5 million cells/mL and allowed to grow for 3 days. Then, 60-80 μL of cells were added to plates and incubated with dose response of an ARM compound of Formula (I) with a top concentration of either 10 μM or 100 μM. The receptor was then stimulated via addition of acetylcholine (ACh) and activation of the receptor was monitored via the IONFlux automated patch clamp system. IonFlux Data Analyzer software was utilized to perform leak subtraction and measure (min) peak current amplitude.
Data processing: (1) Current values recorded for vehicle only applications in individual traps/patterns were subtracted from corresponding current amplitude values for control, test article and control+test article. (2) Control response was calculated as % of the average response of the 3rd out of total 3 ACh (10 mM) applications alone. In rare situations, if the 3rd ACh response was obscured due to technical artifacts, the 2nd and/or 1st ACh (10 mM) application was considered as control. The peak current amplitude generated in the presence of each test article concentration was then used to calculate the % inhibition as compared to control response (10 mM ACh alone). These estimates were further corrected for vehicle response and run down corrected by normalizing with time matched control responses (10 mM ACh alone). The corrected percentages were then fit with a non-linear function in GraphPad Prism 6 (or later versions) to determine the IC50.
Exclusion criteria: (i) any n's with poor recording quality, (ii) control current amplitude <500 pA or (iii) significant outliers, as determined by the Grubbs' test.
ARMs compounds of Formula (I) of the invention were tested for antagonism of the nAChR in the above assay in […] experimental runs and the results are shown in Table 6 below. Antagonistic activity of the compounds of Formula (I) of the invention is reported as an IC50 value (half maximal inhibitory concentration) and the maximum percentage antagonism observed at the highest concentration of compound of Formula (I) tested, as indicated in Table 6. For compounds tested in more than one experimental run, the IC50 value is reported as an average.

[3] = molecular target: Anti-cotinine antibody (SEQ ID NO: 11 / SEQ ID NO: 12); assay: Binding of Anti-Cotinine Antibody to ARM Compounds measured by Surface Plasmon Resonance (SPR); design: species or system rabbit variable region with human IgG1 Fc domain; conditions: Biacore T200, 37° C., Kd = koff/kon, average if several runs
Protocol: Anti-cotinine antibodies having a heavy chain sequence of SEQ ID NO: 11 and a light chain sequence of SEQ ID NO: 12 (rabbit variable region with human IgG1 Fc domain containing a DE mutation (S239D/I332E)) were captured on one or more flow cells of a protein A sensor chip (Cytiva) using a Biacore T200 while reserving flow cell 1 as a reference. Following capture, a 3000 second wait step was included to reduce drift during compound analysis. ARM compounds of Formula (I) were then injected at 100 μL/min with 200 and 2000 second association and dissociation times. The entire experiment was run at 37° C. with running buffer containing 10 mM HEPES pH 7.4, 150 mM NaCl, 0.005% P20 and 1% DMSO. ARM compounds of Formula (I) were titrated with a top concentration of 200 nM using a 3-fold 5-point dilution series and a corresponding 5-injection buffer cycle was run for blank subtraction. Data were double referenced by subtracting the response of the reference flow cell from that of the antibody-containing flow cell and subsequently subtracting the referenced blank sensorgrams. Following compound analysis, the surface was regenerated using a 30 second injection of pH 1.5 glycine at a flow rate of 30 μL/min after which antibody was re-captured. The experiment was run using Biacore T200 control software and evaluated using Biacore T200 Evaluation software. Curves were fit with a 1:1 kinetic binding model to obtain kon(1/Ms), koff(1/s), Kd (M) determined as koff/kon, and residence time determined as 1/koff. (s).
Anti-cotinine antibody was tested for binding to ARMs compounds of Formula (I) of the invention in the above assay in or more experimental runs and the results are shown in Table 5 below. Affinity is reported as a pKd value. The pKd value is the negative log of the Kd value, wherein the Kd value is the dissociation constant measured in molar (M) as noted above. For compounds tested in more than one experimental run, the pKd value is reported as an average

Chain of human alpha1 nicotinic acetylcholine (nACh) receptor (P02708 21-457): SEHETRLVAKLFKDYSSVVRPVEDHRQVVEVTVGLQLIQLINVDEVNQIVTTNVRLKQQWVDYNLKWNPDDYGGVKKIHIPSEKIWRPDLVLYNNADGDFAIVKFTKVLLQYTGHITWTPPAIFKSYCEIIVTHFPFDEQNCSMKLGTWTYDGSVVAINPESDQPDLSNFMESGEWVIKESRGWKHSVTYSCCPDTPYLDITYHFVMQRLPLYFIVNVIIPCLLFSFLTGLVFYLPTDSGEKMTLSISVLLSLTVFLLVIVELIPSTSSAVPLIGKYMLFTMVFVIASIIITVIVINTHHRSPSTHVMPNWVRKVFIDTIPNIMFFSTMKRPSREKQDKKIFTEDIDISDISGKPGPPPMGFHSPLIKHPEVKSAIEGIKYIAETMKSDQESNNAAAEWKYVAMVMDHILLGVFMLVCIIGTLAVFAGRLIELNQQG
Chain of human alpha1 nicotinic acetylcholine (nACh) receptor (P11230 24-501 partner): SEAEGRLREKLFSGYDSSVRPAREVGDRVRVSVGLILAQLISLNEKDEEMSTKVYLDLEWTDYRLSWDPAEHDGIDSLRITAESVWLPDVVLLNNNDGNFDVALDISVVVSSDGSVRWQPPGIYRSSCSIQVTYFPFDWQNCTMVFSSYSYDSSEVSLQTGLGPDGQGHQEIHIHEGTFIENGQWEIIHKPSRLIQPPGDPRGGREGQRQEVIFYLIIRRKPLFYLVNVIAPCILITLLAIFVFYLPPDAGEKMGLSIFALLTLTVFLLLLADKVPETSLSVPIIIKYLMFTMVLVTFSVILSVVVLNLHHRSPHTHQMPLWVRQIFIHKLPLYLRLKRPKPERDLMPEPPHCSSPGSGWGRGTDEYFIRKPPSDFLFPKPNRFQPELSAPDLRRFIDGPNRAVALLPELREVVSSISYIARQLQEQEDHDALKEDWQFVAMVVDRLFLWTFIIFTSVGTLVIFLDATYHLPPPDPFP
Chain of human alpha1 nicotinic acetylcholine (nACh) receptor (Q07001 22-517): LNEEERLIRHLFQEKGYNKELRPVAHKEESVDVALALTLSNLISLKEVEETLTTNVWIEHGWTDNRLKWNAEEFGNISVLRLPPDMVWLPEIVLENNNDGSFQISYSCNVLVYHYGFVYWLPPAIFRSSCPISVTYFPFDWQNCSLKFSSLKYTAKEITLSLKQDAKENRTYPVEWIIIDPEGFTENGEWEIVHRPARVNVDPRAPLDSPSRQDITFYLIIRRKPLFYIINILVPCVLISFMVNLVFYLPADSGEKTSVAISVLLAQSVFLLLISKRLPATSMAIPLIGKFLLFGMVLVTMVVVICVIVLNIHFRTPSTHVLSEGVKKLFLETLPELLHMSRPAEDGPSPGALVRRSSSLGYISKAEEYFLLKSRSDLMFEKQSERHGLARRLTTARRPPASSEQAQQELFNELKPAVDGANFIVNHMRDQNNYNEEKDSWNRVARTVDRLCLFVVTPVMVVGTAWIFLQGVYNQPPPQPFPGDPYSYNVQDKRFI

With `CO[C@H]1COCC[C@H]1N[C@H]1CC[C@@](CCCNC(=O)[C@H]2CC[C@@H](NC(=O)CCOCCOCCNC(=O)CCNC(=O)[C@H]3CC(=O)N(C)[C@@H]3c3cccnc3)CC2)(C(=O)N2CCc3ncc(C(F)(F)F)cc3C2)C1` [Example 19, (2S,3S)—N-(3-((2-(2-(3-(((1s,4s)-4-((3-((1R,3S)-3-(((3R,4R)-3-Methoxytetrahydro-2H-pyran-4-yl)amino)-1-(3-(trifluoromethyl)-5,6,7,8-tetrahydro-1,6-naphthyridine-6-carbonyl)cyclopentyl)propyl)carbamoyl)cyclohexyl)amino)-3-oxopropoxy)ethoxy)ethyl)amino)-3-oxopropyl)-1-methyl-5-oxo-2-(pyridin-3-yl)pyrrolidine-3-carboxamide] the EC50 [1] was 3.16 nM, the IC50 [2] was > 100000 nM and the Emax at 100 µM [2] was 8%.

`CO[C@@H]1COCC[C@@H]1N[C@@H]1CC[C@](CCCNC(=O)CCOCCOCCO[C@H]2CC[C@H](OCCNC(=O)[C@H]3CC(=O)N(C)[C@@H]3c3cccnc3)CC2)(C(=O)N2CCc3ncc(C(F)(F)F)cc3C2)C1` [Example 20, ((2S,3S)—N-(2-(((1r,4S)-4-(2-(2-(3-((3-((1S,3R)-3-(((3S,4S)-3-Methoxytetrahydro-2H-pyran-4-yl)amino)-1-(3-(trifluoromethyl)-5,6,7,8-tetrahydro-1,6-naphthyridine-6-carbonyl)cyclopentyl)propyl)amino)-3-oxopropoxy)ethoxy)ethoxy)cyclohexyl)oxy)ethyl)-1-methyl-5-oxo-2-(pyridin-3-yl)pyrrolidine-3-carboxamide, Formic acid salt] gave an EC50 [1] of 3.98 nM and an Emax at 100 µM [2] of 74%.

For `CO[C@@H]1COCC[C@@H]1N[C@@H]1CC[C@](CCCCCNC(=O)[C@H]2CC[C@H](NC(=O)CCCO[C@H]3CC[C@H](OCCNC(=O)[C@H]4CC(=O)N(C)[C@@H]4c4cccnc4)CC3)CC2)(C(=O)N2CCc3ncc(C(F)(F)F)cc3C2)C1` [Example 9, (2S,3S)-N-(2-(((1R,4S)-4-(4-(((1S,4R)-4-((5-((1S,3R)-3-(((3S,4S)-3-Methoxytetrahydro-2H-pyran-4-yl)amino)-1-(3-(trifluoromethyl)-5,6,7,8-tetrahydro-1,6-naphthyridine-6-carbonyl)cyclopentyl)pentyl)carbamoyl)cyclohexyl)amino)-4-oxobutoxy)cyclohexyl)oxy)ethyl)-1-methyl-5-oxo-2-(pyridin-3-yl)pyrrolidine-3-carboxamide], the EC50 [1] was 1.26 nM and the “pKd of Antibody for ARM Compound of Formula (I)” value [3] was 9.2.

With `CO[C@@H]1COCC[C@@H]1N[C@@H]1CC[C@](CCCNC(=O)[C@H]2CC[C@@H](NC(=O)CCOCCOCCOCCNC(=O)[C@H]3CC(=O)N(C)[C@@H]3c3cccnc3)CC2)(C(=O)N2CCc3ncc(C(F)(F)F)cc3C2)C1` [Example 17, (2S,3S)—N-(2-(2-(2-(3-(((1R,4s)-4-((3-((1S,3R)-3-(((3S,4S)-3-Methoxytetrahydro-2H-pyran-4-yl)amino)-1-(3-(trifluoromethyl)-5,6,7,8-tetrahydro-1,6-naphthyridine-6-carbonyl)cyclopentyl)propyl)carbamoyl)cyclohexyl)amino)-3-oxopropoxy)ethoxy)ethoxy)ethyl)-1-methyl-5-oxo-2-(pyridin-3-yl)pyrrolidine-3-carboxamide, Formic acid salt] the EC50 [1] was 6.31 nM, the IC50 [2] was ≥ 100000 nM and the Emax at 100 µM [2] was 21%.

With `CO[C@@H]1COCC[C@@H]1N[C@@H]1CC[C@](CCCNC(=O)CCOCCOCCOCCOCCOCCOCCOCCOCCOCCOCCOCCOCCNC(=O)[C@H]2CC(=O)N(C)[C@@H]2c2cccnc2)(C(=O)N2CCc3ncc(C(F)(F)F)cc3C2)C1` [Example 1, (2S,3S)—N-(43-((1S,3R)-3-(((3S,4S)-3-methoxytetrahydro-2H-pyran-4-yl)amino)-1-(3-(trifluoromethyl)-5,6,7,8-tetrahydro-1,6-naphthyridine-6-carbonyl)cyclopentyl)-39-oxo-3,6,9,12,15,18,21,24,27,30,33,36-dodecaoxa-40-azatritetracontyl)-1-methyl-5-oxo-2-(pyridin-3-yl)pyrrolidine-3-carboxamide] the EC50 [1] was 2.51 nM, the IC50 [2] was > 100000 nM and the Emax at 100 µM [2] was 29%.

In the case of `CO[C@@H]1COCC[C@@H]1N[C@@H]1CC[C@](COCCNC(=O)[C@H]2CC[C@H](NC(=O)CCCO[C@H]3CC[C@H](OCCNC(=O)[C@H]4CC(=O)N(C)[C@@H]4c4cccnc4)CC3)CC2)(C(=O)N2CCc3ncc(C(F)(F)F)cc3C2)C1` [Example 11, (2S,3S)-N-(2-(((1R,4S)-4-(4-(((1S,4R)-4-((2-(((1S,3R)-3-(((3S,4S)-3-Methoxytetrahydro-2H-pyran-4-yl)amino)-1-(3-(trifluoromethyl)-5,6,7,8-tetrahydro-1,6-naphthyridine-6-carbonyl)cyclopentyl)methoxy)ethyl)carbamoyl)cyclohexyl)amino)-4-oxobutoxy)cyclohexyl)oxy)ethyl)-1-methyl-5-oxo-2-(pyridin-3-yl)pyrrolidine-3-carboxamide], the EC50 [1] is reported as 2.51 nM, the IC50 [2] is reported as > 100000 nM and the Emax at 100 µM [2] is reported as 39%.

With `CO[C@@H]1COCC[C@@H]1N[C@@H]1CC[C@](CCCNC(=O)[C@H]2CC[C@@H](NC(=O)CCCO[C@H]3CC[C@@H](OCCNC(=O)[C@H]4CC(=O)N(C)[C@@H]4c4cccnc4)CC3)CC2)(C(=O)N2CCc3ncc(C(F)(F)F)cc3C2)C1` [Example 4, (2S,3S)-N-(2-(((1S,4R)-4-(4-(((1R,4S)-4-((3-((1S,3R)-3-(((3S,4S)-3-Methoxytetrahydro-2H-pyran-4-yl)amino)-1-(3-(trifluoromethyl)-5,6,7,8-tetrahydro-1,6-naphthyridine-6-carbonyl)cyclopentyl)propyl)carbamoyl)cyclohexyl)amino)-4-oxobutoxy)cyclohexyl)oxy)ethyl)-1-methyl-5-oxo-2-(pyridin-3-yl)pyrrolidine-3-carboxamide, Formic acid salt] the EC50 [1] was 0.794 nM and the Emax at 100 µM [2] was 48%.

Source: US20250154288A1, “CYTOTOXICITY TARGETING CHIMERAS FOR C-C CHEMOKINE RECEPTOR 2-EXPRESSING CELLS” (GLAXOSMITHKLINE INTELLECTUAL PROPERTY DEVELOPMENT LIMITED, priority 2022, published 2025)
